For test [1], the target named is AliC (residues 24–655), oligopeptide-binding lipoprotein of the Ami system, without the lipobox segment (Streptococcus pneumoniae). Nature of the test: AUC; sedimentation velocity, 20 mM Tris–HCl pH 7.5, 20°C, 4.1 μM protein, c(s) distribution (SEDFIT).
The target is the same in test [2]. Nature of the test: crystal structure; AliC in the open conformation, no peptide; 0.1 M Bis-Tris pH 6.5, 25% PEG3350; 2.38 Å; domain-swapped dimer.
For test [3], the system named is AliD. Nature of the test: Microscale thermophoresis (MST) peptide binding to AliD. Set-up: species or system Streptococcus pneumoniae. The note with it: 20 nM RED-NHS-labeled AliD, peptide 7.63x10^-6–0.125 mM in PBS, 25°C. The protocol: To investigate the conformational changes occurring in the Ami permease OBPs upon ligand binding, we synthesized specific peptides (Tables 1 and S2) previously reported to be substrates of these proteins. […] To verify specific binding of peptides to OBPs, binding of peptide 1 (FPPQSV), which is the natural substrate of AliD, and peptide 2 (AIQSEKARKHN) was measured to AliD by microscale thermophoresis (MST) (see methods). […] The crystal structure of the AliD:peptide 1 complex was obtained by co-crystallization (see Materials and Methods) at 2.18 Å resolution (Fig 3A).
Binding of peptides to heterologously expressed AliD was measured by microscale thermophoresis (MST). […] Analyzed peptides (1: FPPQSV and 2: AIQSEKARKHN) were diluted in PBS. […] Samples were loaded into standard capillaries (NanoTemper Technologies) and measured using the Monolith NT.115 machine (NanoTemper Technologies). […] Data of three independently conducted experiments were analyzed using the Mo.Affinity Analysis software version 2.3 from NanoTemper Technologies.
Supplementary file ppat.1011883.s017.tif: S6 Fig Peptide 1 structure in the AliD:peptide 1 complex. (A) Binding of peptide 1 and 2 to heterologously expressed AliD as analyzed by microscale thermophoresis (MST). […] Samples were measured using the Monolith NT.115 (NanoTemper Technologies) at 40% LED power and medium MST power at 25° C. […]

Test [4] relates to AliD. The note with it: peptide derived from Prevotella species; cited from earlier work.
Test [5] concerns AliD. The note with it: peptide derived from Prevotella species; cited from earlier work. This is another data set of the same source.
A further test relates to AliB. As to conditions: S2 Table; previously reported to bind AliB; ref 10 (table adapted from Nasher et al; 2018); cited from earlier work. An excerpt:
Supplement ppat.1011883.s002.docx, table 1 | column: OBP

Test [6] deals with AliD (residues 28–652), oligopeptide-binding lipoprotein of the Ami system, without the lipobox segment (Streptococcus pneumoniae). Nature of the test: MST; 20 nM RED-NHS-labelled AliD and unlabelled peptides (7.63x10^-6–0.125 mM) both in solution, PBS, 25°C, 40% LED power, medium MST power, Monolith NT.115; three independent experiments.

Turning to “AliC (residues 24–655), oligopeptide-binding lipoprotein of the Ami system, without the lipobox segment (natural protein)”, the stoichiometry N in test [1] and in test [2] was 2 throughout.

For the molecule “FPPQSV [Peptide 1, FPPQSV; Ribosome-associated GTPase EngA (Prevotella species)]”, the “Binding to AliD (in words)” value in the test with AliD [3] was “concentration dependent binding”. The “Gene expression change when bound by AliD” value with AliD [4] is listed as “significant changes in gene expression”. In the test with AliD [5], the “Colonization when bound by AliD” value is “enhanced colonization”.

As to “PIVGGHEGAGV [Peptide 3, …; NDMA-dependent alcohol dehydrogenase (multispecies)]”, the “Corresponding OBP” value in the test on AliB is listed as “AliB”.

Regarding Peptide 1 (FPPQSV), in test [6], the Kd is 3.44 µM.

On to “VMVKGPGPGREST [Peptide 4, …; 30S ribosomal protein S11 (multispecies)]”, for which, in the test with AliB, the “Corresponding OBP” value is on record as “AliB”.

The molecule AIQSEKARKHN [Peptide 2 (…)] returned a Kd in test [6] of 14.4 µM.

In general, stoichiometry N refers to the number of molecules, sites or subunits per partner or assembly. One may read the Kd as the equilibrium constant for the complex coming apart.

The record behind these values is article PMC11192437, “Molecular and structural basis of oligopeptide recognition by the Ami transporter system in pneumococci” (PLOS Pathogens, 2024).
